# Test results published in US8993611B2, “Family of polyamine arylethylamide compounds, and their cosmetic or dermocosmetic use” (Exsymol, priority 2012, dated 2015).
# Read-outs that look alike come from different tables or passages of the source.
# How the values were obtained:
# [1] = test system: Salmonella typhimurium (TA 100); conditions: positive control; PBS control 88
# Experimental: The study was carried out according to an almost-identical manner to the here-above test 2, with however D-glucose replacing D-(+)-fructose and according to following conditions. Experimentally, 18.02 g of D-glucose were solubilized at room temperature in 100 mL of water. 10 mL of the solution corresponding to 10 mM of the compound according to the invention, N-((4-imidazolyl)ethyl)-α,β-diamino-propanamide, were sampled and introduced after a pH adjustment by sodium hydroxide. The resulting reaction mixture was then introduced in a screw-top test tube, then heated at 100° C. for 80 minutes.
# In parallel, the TA 100 strain was cultured in the Nutrient Broth Oxoid N° 2 (NBO2) supplemented with Ampicilline. The culture was placed overnight at 37° C. in an orbital shaker (88 rpm) so that bacteria were in growth exponential phase (10^7 to 10^9 bacteria/ml).
# 100 μl of test solution were added to 100 μl of the above-mentioned bacterial suspension and to 500 μl of PBS phosphate buffer, the resulting mixture being incubated 1 h at 37° C. under orbital stirring (122 rpm). 2 ml of soft-agar supplemented in biotin histidine and maintained at 45° C. were added. After mixing with Vortex, they were deposited in a Petri dish containing Vogel-Bonner hard-agar. After solidification, dishes were transferred in the incubator at 37° C. during 48-72 h. […]
# [2] = test system: Salmonella typhimurium (TA 100); assay: Test 3: detoxification of the reference glycotoxin methyl-glyoxal (MGO), Ames pre-incubation test; format: cell-based
# Experimental: […] The resulting mixture was incubated 30 minutes at 37° C. under orbital stirring (122 rpm).
# (§1) The counting of colonies was then achieved manually.
# In addition to the N-((4-imidazolyl)ethyl)-α, β-diaminopropanamide compound, the following compounds according to the invention were also tested at different concentrations: • N-((4-hydroxyphenyl)ethyl)-α,β-diaminopropanamide • N-((4-imidazolyl)ethyl)-α,γ-diaminobutanamide • N-((3,4-dihydroxyphenyl)ethyl)-α,β-diaminopropanamide • N-((4-imidazolyl)ethyl)-L-lysinamide
# The results are gathered in table 3 below, compared to the PBS phosphate buffer (negative control).
# [3] = test system: purified histones, enriched with H1 histones; assay: Test 1: protection of histones towards methyl-glyoxal (MGO), fluorimetry of the dialyzed mixture; format: biochemical; conditions: for RFU (fluorescence of dialyzed mixture, indicative of histone damage by MGO): compound 10 mM + histones + MGO 10 mM, 24 h at 37° C., excitation 340 nm, emission 470 nm, control histones + MGO 62231; for formation of non-enzymatic glycosylation products from reaction of glycotoxin with histones: result in words
# Experimental: A solution of purified histones (5 mg/l), enriched with H1 histones, was incubated in the presence of the reference glycotoxin MGO (10 mM) during 24 h at 37° C. under stirring. In order to follow specifically fluorescence of products from non-enzymatic glycosylation of histones, it was necessary to get rid of MGO fluorescence as well as the one of the glycotoxin-trapper products. For this, the reaction mixture was dialyzed. Then it was introduced in a dialysis tape and three successive 3 hour-baths were run, each one in a NaH2PO4 buffer solution (83.3 mM) in which MGO was diluted. Dialyzed mixture fluorescence which was indicative of the damage of histones made by reaction with MGO (adduct formation) was measured by fluorimetry (λ excitation: 340 nm; λ emission: 470 nm). The measure unit corresponds to RFU (for “Relative Fluorescence Unit”).
# [4] = test system: Salmonella typhimurium (TA 100); assay: Test 2: detoxification of glycotoxins released by fructosylated casein, Ames pre-incubation test without metabolic activator; format: cell-based; conditions: for Number of revertants: TA 100, PBS control 84
# Excerpt: The study was achieved on a Salmonella typhimurium (TA 100) bacterial strain which belongs to reference strains used for the Ames regulatory test (ICH steering committee, Jul. 19, 1995, Guidance on specific aspect of regulatory genotoxicity tests for pharmaceuticals). The objective was to determine, in the mutated strains' colonies, the number of revertant colonies which are representative of mutagenesis in casein-fructose system, with or without a compound according to the invention.
# Experimentally, 2.7 g of D-(+)-fructose were solubilized at room temperature in 100 mL of phosphate buffer. After collecting 20 g of the colourless limpid solution (Cfructose=150 mM), 0.600 g of sodium caseinate were introduced until complete dissolution. The solution was then introduced in 2×10mL in screw-top test tubes, then placed in an oil bath at 120° C. during 1 h.
# To different concentrations (400 μl) of compound according to the invention were successively added 500 μl of glycated casein and 100 μl of the above-mentioned bacterial suspension. The resulting mixture was incubated 30 minutes at 37° C. under orbital stirring (122 rpm).
# as §1
# The results are presented in table 2 below, compared to a negative control (PBS phosphate buffer).
# [5] = compound 75 μM + methyl-glyoxal 140 μM, PBS control 91, MGO alone 161
# [6] = compound 750 μM + methyl-glyoxal 140 μM, PBS control 91, MGO alone 161
smiles,measurement,setting,value
"[N-]=[N+]=[N-] [NaN3, sodium azide]",Number of revertants,[1],211
"NCC(N)C(=O)NCCc1ccc(O)c(O)c1 (stereo not drawn) [N-((3,4-dihydroxyphenyl)ethyl)-α,β-diaminopropanamide]",Number of revertants,[2]; [5],161
same,Number of revertants,[2]; [6],111
"NCC(N)C(=O)NCCc1c[nH]cn1 (stereo not drawn) [N-((4-imidazolyl)ethyl)-α,β-diaminopropanamide]","RFU (fluorescence of dialyzed mixture, indicative of histone damage by MGO)",[3],20441 RFU
same,formation of non-enzymatic glycosylation products from reaction of glycotoxin with histones,[3],strongly decrease
same,RFU,"[4]; compound 7.5 mM + fructosylated casein, PBS control = 1",1.42 RFU
same,Number of revertants,[4]; compound 7.5 mM + fructosylated casein,119
same,revertant count relative to PBS control,"[4]; compound 15 mM + fructosylated casein, PBS control = 1",1.11 RFU
same,Number of revertants,[4]; compound 15 mM + fructosylated casein,93
same,toxicity of the formed glycotoxins,"[4]; result in words, dose-effect relationship observed",strongly decrease
same,Number of revertants,"[2]; compound 75 μM + methyl-glyoxal 280 μM, PBS control 72, MGO alone 308",141
same,Number of revertants,"[2]; compound 750 μM + methyl-glyoxal 280 μM, PBS control 72, MGO alone 308",95
"NCC(N)C(=O)NCCc1ccc(O)cc1 (stereo not drawn) [N-((4-hydroxyphenyl)ethyl)-α,β-diaminopropanamide]",Number of revertants,[2]; [5],152
"NCCC(N)C(=O)NCCc1c[nH]cn1 (stereo not drawn) [N-((4-imidazolyl)ethyl)-α,γ-diaminobutanamide]","RFU (fluorescence of dialyzed mixture, indicative of histone damage by MGO)",[3],21526 RFU
same,formation of non-enzymatic glycosylation products from reaction of glycotoxin with histones,[3],strongly decrease
same,Number of revertants,[2]; [5],154
same,Number of revertants,[2]; [6],116
NCCCC[C@H](N)C(=O)NCCc1c[nH]cn1 [N-((4-imidazolyl)ethyl)-L-lysinamide],Number of revertants,[2]; [5],141
same,Number of revertants,[2]; [6],132
"CC(=O)C=O [Methyl-glyoxal, methyl-glyoxal, reference compound]",Number of revertants,"[2]; methyl-glyoxal alone 140 μM, PBS control 91",161
same,Number of revertants,"[2]; methyl-glyoxal alone 280 μM, PBS control 72",308
